Measured values taken from patent publication US7223865B2, “Chromogenic compounds, and use thereof as enzyme substrates” (Biomerieux, priority 2003, dated 2007).

Key:
Type in all cases: cell-based
[1] = tested on: Citrobacter koseri (012); assay: L-alanine-aminopeptidase activity on gelled medium, Example 4; settings: 0.3 g/l, after the addition of HCl
Description: (§1) A gelled medium comprising L-Ala-2-MeOAPA or L-Ala-2,5-diMeOAPA is prepared as follows: 46.37 g of Columbia agar are added to 1 liter of distilled water and then autoclaved. This reaction medium is separated into two media of equivalent volume. Each of these media comprises, respectively: 0.3 g/l of L-Ala-2-MeOAPA, introduced by means of a stock solution in DMSO, and 0.3 g/l of L-Ala-2,5-diMeOAPA, also introduced by means of a stock solution in DMSO. Microorganisms derived from the applicant's collection were seeded onto each of the media, by delimitation as three dials, using a suspension at 0.5 McFarland. The dishes were incubated at 37° C. for 24 hours. The color of these colonies and also the intensity of this color were noted after the addition of HCl.

[2] = tested on: Escherichia coli (032); assay: as above; settings: 0.3 g/l, after the addition of HCl
Description: as §1

[3] = tested on: Candida albicans (077); assay: as above; settings: 0.3 g/l, after the addition of HCl
Description: as §1, with “The dishes were incubated at 37° C. for 24 hours.” left out

[4] = tested on: Enterobacter cloacae (061); assay: as above; settings: 0.3 g/l, after the addition of HCl
Description: as §1, with “The dishes were incubated at 37° C. for 24 hours.” left out

[5] = tested on: Enterococcus faecalis (117); assay: as above; settings: for Color / Intensity: 0.3 g/l, after the addition of HCl
Description: as §1, with “The dishes were incubated at 37° C. for 24 hours.” left out

[6] = tested on: Klebsiella pneumoniae (023); assay: as above; settings: 0.3 g/l, after the addition of HCl
Description: as §1, with “The dishes were incubated at 37° C. for 24 hours.” left out

[7] = tested on: Listeria innocua (036); assay: as above; settings: 0.3 g/l, after the addition of HCl
Description: as §1, with “The dishes were incubated at 37° C. for 24 hours.” left out

[8] = tested on: Proteus mirabilis (037); assay: as above; settings: 0.3 g/l, after the addition of HCl
Description: as §1, with “The dishes were incubated at 37° C. for 24 hours.” left out

[9] = tested on: Staphylococcus aureus (035); assay: as above; settings: 0.3 g/l, after the addition of HCl
Description: as §1, with “The dishes were incubated at 37° C. for 24 hours.” left out

[10] = tested on: Streptococcus agalactiae (001); assay: as above; settings: 0.3 g/l, after the addition of HCl
Description: as §1, with “The dishes were incubated at 37° C. for 24 hours.” left out

[11] = tested on: Candida albicans (056); assay: L-alanine-aminopeptidase activity on gelled medium, Example 2
Description: (§2) A gelled medium comprising L-Ala-4-AP-10-AA as substrate is prepared as follows: 46.37 g of Columbia agar are added to 1 liter of distilled water and then autoclaved. The reaction medium is separated into three media of equivalent volume. Each of these media comprises, respectively, 0.1 g/l, 0.2 g/l, 0.4 g/l of L-Ala-4-AP-10-AA provided by means of a stock solution in DMSO.
(§3) Microorganisms derived from the applicant's collection were seeded onto each of the media, by delimitation as three dials, using a suspension at 0.5 McFarland. The dishes were incubated at 37° C. for 48 hours. The colonies formed were examined visually after incubation for 24 and 48 hours. The color of these colonies and also the intensity of this color were noted.
(§4) The results are expressed as color intensity, using an arbitrary scale range of from 0 to 4 as a basis.

[12] = tested on: Citrobacter koseri (090); assay: as above; settings: for Intensity: scale 0 to 4
Description: as §2, §3, §4

[13] = tested on: Enterococcus faecalis (075); assay: as above; settings: for Intensity: scale 0 to 4
Description: as §2, §3, §4

[14] = tested on: Escherichia coli (032); assay: as above; settings: for Intensity: scale 0 to 4
Description: as §2, §3, §4

[15] = tested on: Klebsiella pneumoniae (023); assay: as above; settings: for Intensity: scale 0 to 4
Description: as §2, §3, §4

[16] = tested on: Listeria innocua (036); assay: as above
Description: as §2, §3, §4

[17] = tested on: Proteus mirabilis (103); assay: as above; settings: for Intensity: scale 0 to 4
Description: as §2, §3, §4

[18] = tested on: Staphylococcus aureus (070); assay: as above
Description: as §2, §3, §4

[19] = tested on: Streptococcus pyogenes (067); assay: as above
Description: as §2, §3, §4

COc1cc(-c2c3ccccc3nc3ccccc23)c(OC)cc1NC(=O)[C@H](C)N [L-Ala-2,5-diMeOAPA, L-alanyl-2,5-dimethoxyaminophenylacridine]
1: Intensity ([1]; 24 H) | Intensity ([6]; 24 H)
1.5: Intensity ([2]; 24 H) | Intensity ([4]; 24 H)
Yellow-orange: Color ([1]; 48 h) | Color ([2]; 24 H) | Color ([2]; 48 h) | Color ([4]; 24 H) | Color ([4]; 48 h) | Color ([5]; 24 H) | Color ([5]; 48 h) | Color ([6]; 48 h)
0: Intensity ([3]; 24 H) | Intensity ([3]; 48 h) | Intensity ([7]; 24 H) | Intensity ([7]; 48 h) | Intensity ([8]; 24 H) | Intensity ([9]; 24 H) | Intensity ([9]; 48 h) | Intensity ([10]; 24 H) | Intensity ([10]; 48 h)
2.5: Intensity ([1]; 48 h) | Intensity ([6]; 48 h)
colorless: Color ([3]; 24 H) | Color ([3]; 48 h) | Color ([7]; 24 H) | Color ([7]; 48 h) | Color ([8]; 24 H) | Color ([9]; 24 H) | Color ([9]; 48 h) | Color ([10]; 24 H) | Color ([10]; 48 h)
2: Intensity ([2]; 48 h) | Intensity ([4]; 48 h)
orange: Color ([1]; 24 H) | Color ([6]; 24 H) | Color ([8]; 48 h)
exhibits an activity: L-alanine-aminopeptidase activity ([5]; after incubation for 48 hours)
0.5: Intensity ([5]; 24 H) | Intensity ([8]; 48 h)
3: Intensity ([5]; 48 h)

C=CC[n+]1c2ccccc2c(-c2ccc(NC(=O)[C@H](C)N)cc2)c2ccccc21.[Cl-] [L-Ala-4-AP-10-AA, L-alanyl-9-(4-aminophenyl)-10-allylacridinium chloride]
traces: Intensity ([13]; 0.2 g/l, 24 H) | Intensity ([13]; 0.4 g/l, 24 H) | Intensity ([15]; 0.1 g/l, 24 H) | Intensity ([15]; 0.1 g/l, 48 h) | Intensity ([17]; 0.1 g/l, 24 H) | Intensity ([17]; 0.1 g/l, 48 h)
inhibited: Color ([18]; 0.1 g/l, 24 H) | Color ([18]; 0.1 g/l, 48 h) | Color ([18]; 0.2 g/l, 24 H) | Color ([18]; 0.2 g/l, 48 h) | Color ([18]; 0.4 g/l, 24 H) | Color ([18]; 0.4 g/l, 48 h) | Color ([19]; 0.1 g/l, 24 H) | Color ([19]; 0.2 g/l, 24 H) | Color ([19]; 0.4 g/l, 24 H)
colorless: Color ([11]; 0.1 g/l, 24 H) | Color ([11]; 0.1 g/l, 48 h) | Color ([11]; 0.2 g/l, 24 H) | Color ([11]; 0.2 g/l, 48 h) | Color ([11]; 0.4 g/l, 24 H) | Color ([11]; 0.4 g/l, 48 h) | Color ([13]; 0.1 g/l, 24 H) | Color ([13]; 0.1 g/l, 48 h) | Color ([16]; 0.1 g/l, 24 H) | Color ([16]; 0.1 g/l, 48 h) | Color ([16]; 0.2 g/l, 24 H) | Color ([16]; 0.2 g/l, 48 h) | Color ([16]; 0.4 g/l, 24 H) | Color ([16]; 0.4 g/l, 48 h) | Color ([19]; 0.1 g/l, 48 h) | Color ([19]; 0.2 g/l, 48 h) | Color ([19]; 0.4 g/l, 48 h)
3: Intensity ([12]; 0.4 g/l, 24 H) | Intensity ([14]; 0.4 g/l, 48 h) | Intensity ([15]; 0.4 g/l, 24 H) | Intensity ([17]; 0.4 g/l, 24 H) | Intensity ([17]; 0.4 g/l, 48 h)
orange: Color ([13]; 0.2 g/l, 24 H) | Color ([13]; 0.2 g/l, 48 h) | Color ([13]; 0.4 g/l, 24 H) | Color ([13]; 0.4 g/l, 48 h)
2: Intensity ([12]; 0.2 g/l, 48 h) | Intensity ([14]; 0.2 g/l, 24 H) | Intensity ([14]; 0.2 g/l, 48 h) | Intensity ([15]; 0.2 g/l, 48 h)
beige: Color ([12]; 0.1 g/l, 24 H) | Color ([12]; 0.1 g/l, 48 h) | Color ([14]; 0.1 g/l, 24 H) | Color ([14]; 0.1 g/l, 48 h) | Color ([15]; 0.1 g/l, 24 H) | Color ([15]; 0.1 g/l, 48 h) | Color ([17]; 0.1 g/l, 24 H) | Color ([17]; 0.1 g/l, 48 h)
3.5: Intensity ([12]; 0.4 g/l, 48 h) | Intensity ([15]; 0.4 g/l, 48 h)
2.5: Intensity ([14]; 0.4 g/l, 24 H)
0.5: Intensity ([12]; 0.1 g/l, 24 H) | Intensity ([12]; 0.1 g/l, 48 h) | Intensity ([13]; 0.2 g/l, 48 h) | Intensity ([14]; 0.1 g/l, 24 H) | Intensity ([14]; 0.1 g/l, 48 h) | Intensity ([17]; 0.2 g/l, 24 H)
pink-: Color ([12]; 0.2 g/l, 24 H) | Color ([12]; 0.2 g/l, 48 h) | Color ([12]; 0.4 g/l, 24 H) | Color ([12]; 0.4 g/l, 48 h) | Color ([14]; 0.2 g/l, 24 H) | Color ([14]; 0.2 g/l, 48 h) | Color ([14]; 0.4 g/l, 24 H) | Color ([14]; 0.4 g/l, 48 h) | Color ([15]; 0.2 g/l, 24 H) | Color ([15]; 0.2 g/l, 48 h) | Color ([15]; 0.4 g/l, 24 H) | Color ([15]; 0.4 g/l, 48 h) | Color ([17]; 0.2 g/l, 24 H) | Color ([17]; 0.2 g/l, 48 h) | Color ([17]; 0.4 g/l, 24 H) | Color ([17]; 0.4 g/l, 48 h)
1: Intensity ([12]; 0.2 g/l, 24 H) | Intensity ([13]; 0.4 g/l, 48 h) | Intensity ([15]; 0.2 g/l, 24 H) | Intensity ([17]; 0.2 g/l, 48 h)
